Measurements from patent US20250026765A1, “SPIROHETEROCYCLE DERIVATIVE HAVING SEROTONIN RECEPTOR BINDING ACTIVITY” (Shionogi & Co., Ltd., priority 2021, published 2025).

Experiments:
[1] = biological target: human recombinant 5-HT2C receptor (Homo sapiens (Human), UniProt P28335); assay: 5-HT2C receptor binding inhibition test ([3H]-Mesulergine); details: Jump-In HEK cell membrane, 37° C. 2 hours, read-out: h-5-HT2C Ki
Experimental: Test Example 2: 5-HT2C Receptor Binding Inhibition Test
(§1) (Each Experimental Condition)
Cell membrane: 0.5 μg of Jump-In HEK cell membrane (expressing human recombinant 5-HT2C receptor) per well
(§2) Assay buffer: Tris-HCl 50 mmol/L (pH 7.4) containing NaCl 120 mmol/L, MgCl2·6H2O 1 mmol/L, KCl 5 mmol/L, 0.1% BSA and CaCl2 2 mmol/L
Radioactive ligand: [^3H]-Mesulergine with a final concentration of around Kd value calculated by the following method
Non-specific ligand: Serotonin HCl with a final concentration of […]
(§3) The Kd value is calculated when the lot of cell membrane is changed. In advance, 0.5 μL of a 1 mmol/L compound for non-specific binding calculation dissolved in DMSO or DMSO is dispensed into a microplate, and the cell membrane is diluted with an Assay buffer. The radioactive ligand solution is serially diluted and the count is confirmed with a liquid scintillator. Assay buffer containing diluted cell membrane is dispensed into a microplate at 50 μL/well. Then, the radioactive ligand solution is dispensed into a microplate at 50 μL/well, and the plate is sealed. It is allowed to stand at 37° C. for 2 hours. During this period, 50 mmol/L Tris-HCl (pH 7.4) is dispensed into a GF/B UniFilter plate at 50 μL/well and allowed to stand at 4° C. for 1 hour or longer. After that, filtration is performed with Cell harvester (PerkinElmer). The radioactive ligand solution is dispensed into an empty well of the GF/B UniFilter plate at 10 μL/well. After the GF/B UniFilter plate is dried at room temperature, MicroScinti 20 is dispensed into the GF/B UniFilter plate at 50 μL/well to seal the plate. The GF/B UniFilter plate is allowed to stand overnight at room temperature. The radioactivity of [^3H]-Mesulergine bound to the 5-HT2C receptor is measured using Microbeta2 (PerkinElmer) at a measurement time of 1 min/well. The Saturation curve is drawn from the measured value, and the Kd value is calculated from the slope of the Scatchard Plot.
(§4) (Binding Test of the Compound According to the Present Invention)
In advance, 0.5 μL of the compound solution dissolved in DMSO is dispensed into a microplate, and the cell membrane and the hot ligand are diluted with Assay buffer, respectively. Then, the Assay buffer containing the diluted cell membrane is dispensed into a microplate at 50 μL/well. Then, the radioactive ligand solution is dispensed into a microplate at 50 μL/well, and the plate is sealed. Then, it is allowed to stand at 37° C. for 2 hours. During this period, 50 mmol/L Tris-HCl (pH 7.4) is dispensed into a GF/B UniFilter plate at 50 μL/well and allowed to stand at 4° C. for 1 hour or longer. After that, filtration is performed with Cell harvester (PerkinElmer). After the GF/B UniFilter plate is dried at room temperature, MicroScinti 20 is dispensed into the GF/B UniFilter plate at 50 μL/well, and the plate is sealed. The GF/B UniFilter plate is allowed to stand overnight at room temperature. The radioactivity of [^3H]-Mesulergine bound to the 5-HT2C receptor is measured using Microbeta2 (PerkinElmer) at a measurement time of 1 min/well. The non-specific binding is calculated from the radioactivity of […] in the presence of 500 μmol/L Serotonin HCl which is the unlabeled ligand, and the total binding is calculated from the radioactivity of [^3H]-Mesulergine in the absence of the compound according to the present invention (Vehicle). Finally, the Ki value is calculated from the dose-response curve.
(§5) (The binding activity of the compound according to the present invention is calculated from the following binding inhibition rate (%).)
(§6) [formula] • a; mean cpm of non-specific binding • b; average cpm of total binding • c; cpm in the presence of the test compound

[2] = biological target: human recombinant 5-HT2A receptor (Homo sapiens (Human), UniProt P28223); assay: 5-HT2A receptor binding inhibition test ([3H]-Ketanserin); details: Jump-In HEK cell membrane, 25° C. 1.5 hours, read-out: h-5-HT2A Ki
Experimental: Test Example 1: 5-HT2A Receptor Binding Inhibition Test
as §1
Cell membrane: 15 μg of Jump-In HEK cell membrane (expressing human recombinant 5-HT2A receptor) per well
as §2
Radioactive ligand: [^3H]-Ketanserin with a final concentration of around Kd value calculated by the following method
Non-specific ligand: Serotonin HCl with a final concentration of 500 μmol/L
as §3, with “at room temperature (25° C.)” for “at 37° C.”, “for 1.5” for “for 2”, “of [^3H]-Ketanserin” for “of [^3H]-Mesulergine”, “the 5-HT2A” for “the 5-HT2C”
as §4
In advance, 0.5 μL of the compound solution dissolved in DMSO is dispensed into a microplate, and the cell membrane and the hot ligand are diluted with Assay buffer, respectively. Then, the Assay buffer containing the diluted cell membrane is dispensed into a microplate at 50 μL/well. Then, the radioactive ligand solution is dispensed into a microplate at 50 μL/well, and the plate is sealed. Then, it is allowed to stand at room temperature (25° C.) for 1.5 hours. During this period, 50 mmol/L Tris-HCl (pH 7.4) is dispensed into a GF/B UniFilter plate at 50 μL/well and allowed to stand at 4° C. for 1 hour or longer. After that, filtration is performed with Cell harvester (PerkinElmer). After the GF/B UniFilter plate is dried at room temperature, MicroScinti 20 is dispensed into the GF/B UniFilter plate at 50 μL/well to seal the plate. The GF/B UniFilter plate is allowed to stand overnight at room temperature. The radioactivity of [^3H]-Ketanserin bound to the 5-HT2A receptor is measured using Microbeta2 (PerkinElmer) at a measurement time of 1 min/well. The non-specific binding is calculated from the radioactivity of [^3H]-Ketanserin in the presence of 500 μmol/L Serotonin HCl which is the unlabeled ligand, and the total binding is calculated from the radioactivity of [^3H]-Ketanserin in the absence of the compound according to the present invention (Vehicle). Finally, the Ki value is calculated from the dose-response curve.
as §5, §6

human recombinant 5-HT2A receptor, sequence (P28223 whole entry): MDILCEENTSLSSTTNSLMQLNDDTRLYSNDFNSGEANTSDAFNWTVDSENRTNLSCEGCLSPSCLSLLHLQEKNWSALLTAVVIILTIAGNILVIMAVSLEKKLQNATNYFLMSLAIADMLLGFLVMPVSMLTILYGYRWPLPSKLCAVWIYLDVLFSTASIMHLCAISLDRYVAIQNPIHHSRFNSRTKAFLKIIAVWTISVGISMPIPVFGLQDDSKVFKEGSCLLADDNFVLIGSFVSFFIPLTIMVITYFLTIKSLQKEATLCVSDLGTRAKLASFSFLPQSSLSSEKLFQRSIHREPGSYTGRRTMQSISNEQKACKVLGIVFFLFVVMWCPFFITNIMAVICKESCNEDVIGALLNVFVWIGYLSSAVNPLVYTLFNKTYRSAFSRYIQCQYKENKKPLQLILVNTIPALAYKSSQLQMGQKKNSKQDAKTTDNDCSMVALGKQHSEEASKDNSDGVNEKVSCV
human recombinant 5-HT2C receptor, sequence (P28335 33-458): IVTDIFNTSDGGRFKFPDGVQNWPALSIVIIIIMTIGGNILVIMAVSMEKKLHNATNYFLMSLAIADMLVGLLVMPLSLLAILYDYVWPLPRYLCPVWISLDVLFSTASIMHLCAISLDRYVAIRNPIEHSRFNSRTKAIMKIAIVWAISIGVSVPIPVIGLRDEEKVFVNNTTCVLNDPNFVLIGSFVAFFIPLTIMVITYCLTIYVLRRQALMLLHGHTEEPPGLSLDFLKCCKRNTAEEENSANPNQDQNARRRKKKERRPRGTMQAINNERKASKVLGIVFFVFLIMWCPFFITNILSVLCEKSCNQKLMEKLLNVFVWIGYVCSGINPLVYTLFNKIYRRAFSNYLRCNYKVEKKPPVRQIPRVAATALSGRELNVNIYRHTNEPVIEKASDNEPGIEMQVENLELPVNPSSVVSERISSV

Compound	Ki [1] [nM]	Ki [2] [nM]
Cc1nc(CN(Cc2ccc(OCC(F)(F)C(F)F)cc2)C2=NOC3(CCN(C)CC3)N2)co1 [Compound I-064]	< 10	< 10
Cc1nc(CN(Cc2ccc(OCC(C)(F)F)cc2)C2=NOC3(CCN(C)CC3)N2)co1 [Compound I-065]	< 10	< 10
Cc1nc(CN(Cc2ccc(OCC(F)F)cc2)C2=NOC3(CCN(C)CC3)N2)co1 [Compound I-066]	< 10	< 10
CCc1nc(CN(Cc2ccc(OCC(C)C)cc2)C2=NOC3(CCN(C)CC3)N2)co1 [Compound I-068]	< 10	< 10
Cc1nc(CN(Cc2cccs2)C2=NOC3(CCN(C)CC3)N2)co1 [Compound I-069]	< 10	10 to 100
Cc1cc(CN(Cc2ccc(OCC(C)C)cc2)C2=NOC3(CCN(C)CC3)N2)co1 [Compound I-070]	< 10	< 10
CC(C)COc1ccc(CN(Cc2cnn(C)n2)C2=NOC3(CCN(C)CC3)N2)cc1 [Compound I-072]	< 10	< 10
Cc1nc(CN(Cc2ccsc2)C2=NOC3(CCN(C)CC3)N2)co1 [Compound I-073]	< 10	10 to 100
Cc1cc(CN(Cc2ccc(OCC(C)C)cc2)C2=NOC3(CCN(C)CC3)N2)no1 [Compound I-075]	100 to 500	< 10
Cc1cc(CN(Cc2ccc(OCC(C)C)cc2)C2=NOC3(CCN(C)CC3)N2)on1 [Compound I-076]	100 to 500	10 to 100
CCCCc1ccc(CN(Cc2coc(C)n2)C2=NOC3(CCN(C)CC3)N2)cc1 [Compound I-077]	< 10	< 10
Cc1ccc(CN(Cc2ccc(OCC(C)C)cc2)C2=NOC3(CCNCC3)N2)cn1 [Compound I-078]	100 to 500	< 10
Cc1nc(CN(Cc2ccc(OCC3CC3)cc2)C2=NOC3(CCN(C)CC3)N2)co1 [Compound I-079]	< 10	< 10
Cc1ccc(CN(Cc2ccc(OCC(C)C)cc2)C2=NOC3(CCN(C)CC3)N2)cn1 [Compound I-081]	100 to 500	< 10
Cc1nc(CN(Cc2ccc(OCC(F)(F)C(F)(F)F)cc2)C2=NOC3(CCN(C)CC3)N2)co1 [Compound I-082]	< 10	< 10
Cc1nc(CN(Cc2ccc(OCC3CCC3)cc2)C2=NOC3(CCN(C)CC3)N2)co1 [Compound I-083]	< 10	< 10
Cc1nc(CN(Cc2ccc(OCC3CC(F)(F)C3)cc2)C2=NOC3(CCN(C)CC3)N2)co1 [Compound I-084]	< 10	< 10
